Columns and labels:
[1] = test system: cisplatin-resistant variant (CNE2) of human nasopharyngeal carcinoma cells; experiment: MTT cell viability assay, CNE2; assay type: cell-based; details: for IC50: MTT, 37° C., 48 h, mean ± SD
Text: (§1) Human cervical epitheloid carcinoma cells (HeLa), human hepatocellular carcinoma cells (HepG2 and Hep3B), human breast cancer cells (MCF-7), human coloadenocarcinoma cells (HCT-8), and normal human lung fibroblast cells (CCD-19Lu) were purchased from American Type Culture Collection (ATCC) Rockville, Md., USA. The human hepatocellular cancinoma cells QGY-7703, and the multi-drug resistant cell line QGY-TR50 derived from QGY-7703, were generously provided by Prof. Yong Xie (The Hong Kong University of Science and Technology, Hong Kong PRC). QGY-TR50 cells were isolated and cultured as described (J. Zhou, S. C. Cheng, D. Luo, Y. Xie Biochem. Biophys. Res. Commun. 2001, 280, 1237-1242). Human nasopharyngeal carcinoma cells (SUNE1 and its cisplatin-resistant variant—CNE2) were derived from poorly differentiated NPC in Chinese patients and were generously provided by Dr. S. W. Tsao (The University of Hong Kong, Hong Kong PRC). Cell culture flasks and 96-well microtitre plates were from Nalge Nunc Int. Culture medium, other medium constituents and phosphate buffer saline (PBS) were obtained by Gibco BRL Rockville, Md., USA. Cell Proliferation kit I (MTT) was purchased from Roche. Mannheim, Germany.

HeLa cells [2] = experiment: Confocal microscopy with AO/EB staining; assay type: cell-based, human; details: complex 1 0.2 μM 20 h, complex 2b 10 μM 16 h
Text: Confocal Microscopic Experiment. By examining cell morphology under scanning confocal microscopy, the type of cell death can be distinguished. Early phase of apoptosis is characterized by the formation of apoptotic bodies when the integrity of the cell membrane is maintained without cell lysis. On the other hand, necrosis is characterized by cell lyses with the leaking out of internal cellular components such as DNA. With ethidium bromide (DNA stain) and acridine orange (cell membrane stain) as staining agents, normal, apoptotic and necrotic cells can be distinguished under laser confocal microscopy (Chan et. al., Inorg. Chem. 2002, 41, 3161-3171).

[3] = Stability by UV-visible in DMSO/Tris buffer; assay type: physicochemical; details: DMSO/Tris buffer solution (1:9), 24 h, room temperature; complex 1 3 μM, complex 2b 7 μM
Protocol: UV-visible experiments. The absorption spectra of 3 μM of complex 1 in DMSO/Tris buffer solution (1:9) were monitored for 24 h. […] The complex was monitored over 24 h at room temperature and about 23% decrease in the Soret band intensity was recorded without any significant spectral shift in both Soret and Q-bands (FIG. 5). The absorption spectra of 7 μM of complex 2b in DMSO/Tris buffer solution (1:9) were also monitored for 24 h.

[4] = test system: human coloadenocarcinoma cells (HCT-8); experiment: MTT cell viability assay, HCT-8; assay type: cell-based; details: for IC50 ratio cisplatin/complex, HCT-8: IC50 of cisplatin divided by IC50 of complex; for IC50: MTT, 37° C., 48 h, mean ± SD
Text: as §1

[5] = test system: normal human lung fibroblast cells (CCD-19Lu); experiment: MTT cell viability assay, CCD-19Lu; assay type: cell-based; details: for IC50 ratio cisplatin/complex, CCD-19Lu: IC50 of cisplatin divided by IC50 of complex; for IC50: MTT, 37° C., 48 h, mean ± SD
Text: as §1

[6] = test system: human breast cancer cells (MCF-7); experiment: MTT cell viability assay, MCF-7; assay type: cell-based; details: MTT, 37° C., 48 h; mean ± SD
Text: as §1

[7] = Stability by UV-visible in presence of reduced glutathione; assay type: physicochemical; details: 6 mM GSH in DMSO/Tris buffer solution (1:9)
Protocol: Moreover, concomitant band broadening in spectrum of complex 1 was observed after 24 h. No significant spectral shift and formation of new absorption band were observed. […] Comparing with the spectra of complex 1, the decrease in Soret band intensity of complex 2b is less significant. The intensities are only found to decrease in 2% and 19% after 2 h and 24 h, respectively. Also, there is no significant spectral shift and formation of new absorption band were observed (FIG. 8).

calf thymus DNA = experiment: Absorption titration with calf thymus DNA; assay type: binding; details: Tris buffer
Protocol: The calf thymus DNA was purchased from Sigma-Aldrich Chemical Co. and was purified by phenol-chloroform extraction. The DNA was dissolved in buffer (5 mM Tris, 5 mM NaCl, pH 7.2). The concentration (per base pair) or calf thymus DNA was determined spectophotometrically on the basic of ε260, 13200 M^−1cm^−1bp.
Absorption Titration. Studying the interaction between drugs and DNA is imperative to pharmaceutical chemistry. Since complexation between a ligand molecule and a nucleic acid leads to optical changes, its binding can be studied using spectroscopic methods like fluorescence and electronic absorption spectroscopy (C. V. Kumar, E. H. Asuncion, J. Am. Chem. Soc. 1993, 115, 8547-8553). The binding interactions of lanthanide (III) porphyrin complexes with calf thymus DNA were investigated using UV-vis spectroscopy and depicted in FIGS. 9 and 10 (selected absorption curves were shown for clear plot). By monitoring wavelengths at 410 nm (complex 1) and 430 nm (complex 2b), successive additions of calf thymus DNA to the respective complexes in Tris buffer solution containing <5% DMSO were done until saturation. Moderate hyprochromicities of 27% and 23% in complexes 1 and 2b were found without significant bathochromic spectral shift. […] The values of binding constant K were calculated from a plot of D/Δεap versus D based on the following equation:
Where D is the concentration of DNA, Δεap=|ΔεA−ΔεB| wherein εA=Aobs/[complex], and Δε=|ΔεB−ΔεF|; εB and εF correspond to the extinction coefficients of DNA-bound lanthanide(III) porphyrin complex adduct and its free complex, respectively. By monitoring absorbance at 410 nm (complex 1) and 430 nm (complex 2b), plots of D/Δεap against D are inserted in FIGS. 9 and 10. Linear curves in two graphs were plotted with slopes of 4.63×10^−5 (complex 1) and 3.60×10^−5 (complex 2b) (both R=0.99).

[8] = test system: human cervical epitheloid carcinoma cells (HeLa); experiment: MTT cell viability assay, HeLa; assay type: cell-based; details: for IC50 ratio cisplatin/complex, HeLa: IC50 of cisplatin divided by IC50 of complex; for IC50: MTT, 37° C., 48 h, mean ± SD of three experiments
Text: as §1

[9] = test system: human nasopharyngeal carcinoma cells (SUNE1); experiment: MTT cell viability assay, SUNE1; assay type: cell-based; details: for IC50 ratio cisplatin/complex, SUNE1: IC50 of cisplatin divided by IC50 of complex; for IC50: MTT, 37° C., 48 h, mean ± SD
Text: as §1

[10] = test system: human hepatocellular carcinoma cells (HepG2); experiment: MTT cell viability assay, HepG2; assay type: cell-based; details: for IC50: MTT, 37° C., 48 h, mean ± SD
Text: as §1

[11] = test system: human hepatocellular carcinoma cells (Hep3B); experiment: MTT cell viability assay, Hep3B; assay type: cell-based; details: 37° C., 48 h, mean ± SD
Text: as §1

[12] = test system: human hepatocellular cancinoma cells QGY-7703; experiment: MTT cell viability assay, QGY-7703; assay type: cell-based; details: MTT, 37° C., 48 h; mean ± SD
Text: as §1

[13] = test system: multi-drug resistant cell line QGY-TR50; experiment: MTT cell viability assay, QGY-TR50; assay type: cell-based, human; details: MTT, 37° C., 48 h; mean ± SD
Text: as §1

HeLa cells [14] = experiment: Effect of 3-MA on 1-induced cytotoxicity (MTT); assay type: cell-based, human; details: 3-MA 10 mM
Protocol: HeLa cells were pre-treated with 3-MA (10 mM) for 1 h, and then with 1 for 24 h as indicated. Cell viability was measured using MTT assay *, P<0.001. Effect of 3-MA on 1-induced cytotoxicity. Cells were seeded on 96-well microtitre plates (8×10^3 cells per well). After overnight incubation, the cells were pre-incubated with 3-methyladenine (3-MA, 10 mM) for 1 hour and then in the presence of 1 (DMSO<1%) for 24 h. Cell viability was measured by MTT assay as described before.

[15] = IC50 of cisplatin divided by IC50 of complex

[Yb2(TPP)2]μ-C2O4 [Complex 2b]
IC50 ratio cisplatin/complex, CNE2 [1, 15]: 3.4 | IC50 [1]: 16.8 ± 0.01 µM | cell morphology (type of cell death) under confocal microscopy (HeLa cells [2]): both living and apoptotic cells were observed | decrease in Soret band intensity [3]: 5% | IC50 ratio cisplatin/complex, HCT-8 [4]: 4.6 | IC50 [4]: 5.6 ± 1.5 µM | IC50 ratio cisplatin/complex, CCD-19Lu [5]: 5.6 | IC50 [5]: 16 ± 2.9 µM | IC50 [6]: > 100 µM | decrease in Soret band intensity, reduced glutathione, 2 h ([7]; 2 h): 2% | decrease in Soret band intensity, reduced glutathione, 24 h ([7]; 24 h): 19% | hyprochromicity on addition of calf thymus DNA (calf thymus DNA; <5% DMSO, until saturation, 410 nm (1), 430 nm (2b)): 23% | binding constant K with calf thymus DNA (calf thymus DNA; UV-vis absorption titration, 20° C.): (5.49±0.8)×10^5 mol^−1dm^3 | IC50 ratio cisplatin/complex, HeLa [8]: 7.0 | IC50 [8]: 2.1 ± 0.3 µM | IC50 ratio cisplatin/complex, SUNE1 [9]: 1.2 | IC50 [9]: 9.4 ± 0.3 µM

C1=Cc2nc1c(-c1ccccc1)c1ccc([n-]1)c(-c1ccccc1)c1nc(c(-c3ccccc3)c3ccc([n-]3)c2-c2ccccc2)C=C1.CC(=O)C=C(C)[O-].[Yb+3] [Complex 2a]
IC50 ratio cisplatin/complex, HCT-8 [4]: 1.7 | IC50 [4]: 15.2 ± 6.1 µM | IC50 ratio cisplatin/complex, HepG2 [10, 15]: 0.3 | IC50 [10]: 17.1 ± 1.3 µM | IC50 ratio cisplatin/complex, CCD-19Lu [5]: 3.6 | IC50 [5]: 25.1 ± 2.6 µM | IC50 [6]: > 100 µM | IC50 ratio cisplatin/complex, HeLa [8]: 2.1 | IC50 [8]: 6.9 ± 0.1 µM | IC50 ratio cisplatin/complex, SUNE1 [9]: 0.7 | IC50 [9]: 16.2 ± 1.6 µM

N.N.[Cl][Pt][Cl] [Cisplatin, cis-diamminedichloroplatinum[II], reference compound]
IC50 [1]: 57.6 ± 4.6 µM | IC50 [11]: 39.8 ± 2.38 µM | IC50 [4]: 26.1 ± 2.1 µM | IC50 [10]: 4.76 ± 0.7 µM | IC50 [5]: 90.6 ± 42.3 µM | IC50 [6]: 35.4 ± 5 µM | IC50 [12]: 45.8 ± 4.13 µM | IC50 [13]: 32.6 ± 1.94 µM | IC50 [8]: 14.2 ± 8.2 µM | IC50 [9]: 11.8 ± 1.2 µM

Cn1cnc(N)c2ncnc1-2 [Complex 3-MA, 3-methyladenine, reference compound]
cell viability after pre-treatment with 3-MA alone (HeLa cells [14]): did not affect cell viability

Source: patent US20100069345A1, “Lanthanide-porphyrin complexes as anti-tumor agents” (priority 2005, published 2010)
